Laboratory results reported in the supplement of paper PMC12076712.
± gives the standard deviation of the averaged measurements.

Assays:
Assay in all cases: pIC50, kinobeads binding competition
Conditions in all cases: cell material: Jurkat lysate
[1] = target: CDK10 (UniProt Q15131)
[2] = target: T1, UniProt P25098
T1 sequence (whole entry): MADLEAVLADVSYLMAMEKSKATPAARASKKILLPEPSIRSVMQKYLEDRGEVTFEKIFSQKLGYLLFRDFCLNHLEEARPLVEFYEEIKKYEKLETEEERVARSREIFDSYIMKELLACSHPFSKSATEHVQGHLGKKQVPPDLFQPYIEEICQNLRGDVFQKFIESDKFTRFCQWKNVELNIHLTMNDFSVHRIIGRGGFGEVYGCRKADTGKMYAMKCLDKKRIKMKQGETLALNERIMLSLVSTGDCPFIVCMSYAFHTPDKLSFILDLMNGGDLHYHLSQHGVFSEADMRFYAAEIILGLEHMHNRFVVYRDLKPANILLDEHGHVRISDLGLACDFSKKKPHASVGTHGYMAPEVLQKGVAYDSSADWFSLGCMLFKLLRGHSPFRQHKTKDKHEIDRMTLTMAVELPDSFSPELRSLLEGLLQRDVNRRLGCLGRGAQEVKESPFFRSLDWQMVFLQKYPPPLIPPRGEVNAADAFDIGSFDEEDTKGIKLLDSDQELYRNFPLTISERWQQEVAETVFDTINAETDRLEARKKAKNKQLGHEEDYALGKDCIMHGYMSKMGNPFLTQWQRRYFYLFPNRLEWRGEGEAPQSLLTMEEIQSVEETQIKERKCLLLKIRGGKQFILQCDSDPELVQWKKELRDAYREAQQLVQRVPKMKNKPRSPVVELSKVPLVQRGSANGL

[3] = target: TYK2 (UniProt P29597)
[4] = target: MAPK11 (UniProt Q15759)
Sequence of MAPK11 (Q15759 whole entry): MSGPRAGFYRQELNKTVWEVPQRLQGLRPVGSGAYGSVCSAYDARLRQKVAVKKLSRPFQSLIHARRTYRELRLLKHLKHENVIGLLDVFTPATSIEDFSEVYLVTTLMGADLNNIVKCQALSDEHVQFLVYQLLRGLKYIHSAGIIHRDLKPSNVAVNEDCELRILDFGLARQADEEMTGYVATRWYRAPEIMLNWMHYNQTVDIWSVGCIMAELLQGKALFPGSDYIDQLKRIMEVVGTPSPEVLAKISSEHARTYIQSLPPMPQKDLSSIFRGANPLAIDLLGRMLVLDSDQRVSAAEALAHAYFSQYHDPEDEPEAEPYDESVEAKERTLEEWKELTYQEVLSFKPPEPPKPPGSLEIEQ

[5] = target: UniProt Q92918
[6] = target: UniProt O75582
Sequence of UniProt O75582 (O75582 whole entry, looked up): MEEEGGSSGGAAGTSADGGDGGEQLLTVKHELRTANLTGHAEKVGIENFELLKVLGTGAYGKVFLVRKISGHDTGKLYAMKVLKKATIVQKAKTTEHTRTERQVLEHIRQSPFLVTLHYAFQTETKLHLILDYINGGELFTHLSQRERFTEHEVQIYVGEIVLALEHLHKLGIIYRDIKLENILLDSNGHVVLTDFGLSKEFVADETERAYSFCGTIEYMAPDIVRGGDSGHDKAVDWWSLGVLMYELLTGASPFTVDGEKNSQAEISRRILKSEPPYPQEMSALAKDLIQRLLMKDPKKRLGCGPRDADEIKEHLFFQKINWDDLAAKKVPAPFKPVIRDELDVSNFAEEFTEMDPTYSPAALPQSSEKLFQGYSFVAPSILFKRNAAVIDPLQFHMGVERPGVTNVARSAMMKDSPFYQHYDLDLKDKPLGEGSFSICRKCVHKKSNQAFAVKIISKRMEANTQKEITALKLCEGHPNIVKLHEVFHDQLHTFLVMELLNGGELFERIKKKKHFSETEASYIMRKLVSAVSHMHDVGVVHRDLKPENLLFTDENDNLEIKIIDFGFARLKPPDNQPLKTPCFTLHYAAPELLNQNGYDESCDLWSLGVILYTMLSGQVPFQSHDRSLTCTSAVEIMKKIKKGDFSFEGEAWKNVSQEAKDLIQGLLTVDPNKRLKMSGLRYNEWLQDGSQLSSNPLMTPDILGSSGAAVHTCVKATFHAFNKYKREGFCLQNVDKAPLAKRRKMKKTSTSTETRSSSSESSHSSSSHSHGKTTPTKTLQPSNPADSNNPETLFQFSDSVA

[7] = target: T2, UniProt O15530
T2 sequence (whole entry): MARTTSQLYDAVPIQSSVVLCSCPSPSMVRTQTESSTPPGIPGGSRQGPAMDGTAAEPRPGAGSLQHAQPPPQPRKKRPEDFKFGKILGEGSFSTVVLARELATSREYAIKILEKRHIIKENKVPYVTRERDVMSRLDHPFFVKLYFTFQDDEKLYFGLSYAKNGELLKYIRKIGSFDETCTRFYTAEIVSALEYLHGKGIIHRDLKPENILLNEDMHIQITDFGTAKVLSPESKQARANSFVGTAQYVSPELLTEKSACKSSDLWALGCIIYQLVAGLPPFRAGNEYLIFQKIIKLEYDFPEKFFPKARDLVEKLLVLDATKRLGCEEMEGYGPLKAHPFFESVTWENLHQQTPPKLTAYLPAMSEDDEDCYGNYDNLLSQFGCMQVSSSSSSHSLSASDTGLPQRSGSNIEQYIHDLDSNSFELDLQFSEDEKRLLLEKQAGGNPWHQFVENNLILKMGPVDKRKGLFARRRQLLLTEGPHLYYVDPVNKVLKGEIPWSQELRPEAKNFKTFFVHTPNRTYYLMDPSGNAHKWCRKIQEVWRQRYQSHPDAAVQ

[8] = target: BUB1 (UniProt O43683)
[9] = target: PAK1 (UniProt Q13153)
Sequence of PAK1 (Q13153 whole entry): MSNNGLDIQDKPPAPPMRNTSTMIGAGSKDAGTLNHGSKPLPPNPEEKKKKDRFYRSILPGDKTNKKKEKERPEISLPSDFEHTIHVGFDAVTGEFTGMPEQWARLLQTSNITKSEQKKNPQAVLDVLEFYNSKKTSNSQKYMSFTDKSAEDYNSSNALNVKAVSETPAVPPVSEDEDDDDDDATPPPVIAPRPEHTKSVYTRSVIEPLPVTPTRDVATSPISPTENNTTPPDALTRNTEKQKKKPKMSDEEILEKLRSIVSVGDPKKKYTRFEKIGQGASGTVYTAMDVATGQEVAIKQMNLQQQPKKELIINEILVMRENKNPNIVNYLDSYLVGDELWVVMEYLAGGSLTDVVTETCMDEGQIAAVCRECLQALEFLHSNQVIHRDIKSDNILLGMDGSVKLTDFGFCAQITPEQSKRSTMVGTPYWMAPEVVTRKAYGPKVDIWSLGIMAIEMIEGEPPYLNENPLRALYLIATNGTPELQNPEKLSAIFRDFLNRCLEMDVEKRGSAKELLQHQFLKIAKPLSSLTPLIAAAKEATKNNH

[10] = target: UniProt Q8NI60
[11] = target: UniProt Q05655
[12] = target: SRPK2 (UniProt P78362)
[13] = target: HIPK3 (UniProt Q9H422)
[14] = target: UniProt O95747
Sequence of UniProt O95747 (O95747 whole entry, looked up): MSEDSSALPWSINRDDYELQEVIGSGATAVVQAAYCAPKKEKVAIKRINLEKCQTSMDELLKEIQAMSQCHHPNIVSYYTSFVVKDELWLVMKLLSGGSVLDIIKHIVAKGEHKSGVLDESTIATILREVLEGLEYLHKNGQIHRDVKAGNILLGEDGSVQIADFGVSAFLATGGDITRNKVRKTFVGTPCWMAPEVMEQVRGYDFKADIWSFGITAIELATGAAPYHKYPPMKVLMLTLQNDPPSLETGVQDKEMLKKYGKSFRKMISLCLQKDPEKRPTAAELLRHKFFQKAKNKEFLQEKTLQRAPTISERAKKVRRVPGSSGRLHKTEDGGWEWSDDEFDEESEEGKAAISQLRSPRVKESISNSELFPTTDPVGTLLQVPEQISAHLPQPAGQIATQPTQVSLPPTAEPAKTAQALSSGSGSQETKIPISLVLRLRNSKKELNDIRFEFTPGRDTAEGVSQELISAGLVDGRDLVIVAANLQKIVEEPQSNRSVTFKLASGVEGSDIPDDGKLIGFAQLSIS

[15] = target: INSR (UniProt P06213)
Sequence of INSR (P06213 whole entry): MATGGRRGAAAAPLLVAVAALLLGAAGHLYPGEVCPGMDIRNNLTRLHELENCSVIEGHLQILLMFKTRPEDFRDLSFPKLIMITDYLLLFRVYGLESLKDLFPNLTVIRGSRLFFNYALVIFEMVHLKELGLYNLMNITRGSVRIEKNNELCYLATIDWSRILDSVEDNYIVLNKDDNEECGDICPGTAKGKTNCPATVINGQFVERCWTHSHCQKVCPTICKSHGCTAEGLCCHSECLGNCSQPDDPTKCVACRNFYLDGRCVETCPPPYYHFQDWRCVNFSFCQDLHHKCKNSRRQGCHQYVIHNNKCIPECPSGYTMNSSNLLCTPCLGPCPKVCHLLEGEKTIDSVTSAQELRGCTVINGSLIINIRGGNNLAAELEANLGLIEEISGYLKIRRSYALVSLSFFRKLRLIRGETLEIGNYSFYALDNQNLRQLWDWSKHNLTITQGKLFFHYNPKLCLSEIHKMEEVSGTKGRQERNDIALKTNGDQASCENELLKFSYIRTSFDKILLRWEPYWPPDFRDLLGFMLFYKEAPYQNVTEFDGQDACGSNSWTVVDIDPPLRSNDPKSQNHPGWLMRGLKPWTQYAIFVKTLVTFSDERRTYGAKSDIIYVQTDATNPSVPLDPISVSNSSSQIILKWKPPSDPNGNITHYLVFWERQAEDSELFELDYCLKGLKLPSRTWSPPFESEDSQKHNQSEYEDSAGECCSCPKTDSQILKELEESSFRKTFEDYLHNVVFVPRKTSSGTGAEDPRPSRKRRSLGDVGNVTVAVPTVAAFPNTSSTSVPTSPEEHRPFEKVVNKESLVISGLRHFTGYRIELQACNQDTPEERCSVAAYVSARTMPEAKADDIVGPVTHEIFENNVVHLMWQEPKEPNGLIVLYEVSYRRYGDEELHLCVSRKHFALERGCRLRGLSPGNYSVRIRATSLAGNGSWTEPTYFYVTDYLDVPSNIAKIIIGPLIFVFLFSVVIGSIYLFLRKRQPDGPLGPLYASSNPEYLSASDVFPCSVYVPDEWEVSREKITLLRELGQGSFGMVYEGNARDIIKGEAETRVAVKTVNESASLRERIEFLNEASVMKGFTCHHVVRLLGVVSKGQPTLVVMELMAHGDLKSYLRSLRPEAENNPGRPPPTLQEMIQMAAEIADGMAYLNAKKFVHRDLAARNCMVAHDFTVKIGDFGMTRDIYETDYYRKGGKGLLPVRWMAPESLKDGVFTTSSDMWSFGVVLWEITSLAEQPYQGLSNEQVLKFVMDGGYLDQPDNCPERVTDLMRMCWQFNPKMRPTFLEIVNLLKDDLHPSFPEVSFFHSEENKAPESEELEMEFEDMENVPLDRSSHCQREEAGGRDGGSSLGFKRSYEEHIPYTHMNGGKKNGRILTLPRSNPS

[16] = target: T3, BMPR2 (UniProt Q13873)
T3 sequence (whole entry): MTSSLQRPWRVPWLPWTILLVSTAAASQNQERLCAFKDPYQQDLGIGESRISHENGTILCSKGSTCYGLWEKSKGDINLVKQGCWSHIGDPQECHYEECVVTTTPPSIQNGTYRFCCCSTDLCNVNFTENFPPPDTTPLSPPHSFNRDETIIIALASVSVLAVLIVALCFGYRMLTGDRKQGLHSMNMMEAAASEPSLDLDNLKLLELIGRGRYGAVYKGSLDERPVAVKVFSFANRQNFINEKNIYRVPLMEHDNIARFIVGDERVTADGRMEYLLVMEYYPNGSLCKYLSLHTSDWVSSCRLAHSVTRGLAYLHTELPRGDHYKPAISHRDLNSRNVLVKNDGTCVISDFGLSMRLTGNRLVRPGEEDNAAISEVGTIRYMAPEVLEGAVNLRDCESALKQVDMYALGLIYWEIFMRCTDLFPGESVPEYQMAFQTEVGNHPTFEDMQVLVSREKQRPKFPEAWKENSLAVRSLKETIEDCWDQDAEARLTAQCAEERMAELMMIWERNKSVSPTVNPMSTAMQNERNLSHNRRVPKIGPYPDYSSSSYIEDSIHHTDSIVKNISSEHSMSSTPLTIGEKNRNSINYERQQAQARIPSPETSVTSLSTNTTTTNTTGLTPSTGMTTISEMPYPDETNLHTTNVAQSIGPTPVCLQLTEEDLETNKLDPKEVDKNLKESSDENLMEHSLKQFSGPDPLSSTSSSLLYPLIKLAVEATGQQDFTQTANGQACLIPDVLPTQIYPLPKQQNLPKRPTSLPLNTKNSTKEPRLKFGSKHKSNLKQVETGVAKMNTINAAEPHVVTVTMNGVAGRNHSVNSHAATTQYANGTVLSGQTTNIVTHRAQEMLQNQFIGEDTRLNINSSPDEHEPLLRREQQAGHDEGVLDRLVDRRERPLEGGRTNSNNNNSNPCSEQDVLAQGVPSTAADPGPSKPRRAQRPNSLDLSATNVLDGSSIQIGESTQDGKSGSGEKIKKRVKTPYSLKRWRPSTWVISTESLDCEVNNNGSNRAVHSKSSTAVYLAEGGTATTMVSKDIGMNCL

[17] = target: MAP4K5 (UniProt Q9Y4K4)
Sequence of MAP4K5 (Q9Y4K4 whole entry, looked up): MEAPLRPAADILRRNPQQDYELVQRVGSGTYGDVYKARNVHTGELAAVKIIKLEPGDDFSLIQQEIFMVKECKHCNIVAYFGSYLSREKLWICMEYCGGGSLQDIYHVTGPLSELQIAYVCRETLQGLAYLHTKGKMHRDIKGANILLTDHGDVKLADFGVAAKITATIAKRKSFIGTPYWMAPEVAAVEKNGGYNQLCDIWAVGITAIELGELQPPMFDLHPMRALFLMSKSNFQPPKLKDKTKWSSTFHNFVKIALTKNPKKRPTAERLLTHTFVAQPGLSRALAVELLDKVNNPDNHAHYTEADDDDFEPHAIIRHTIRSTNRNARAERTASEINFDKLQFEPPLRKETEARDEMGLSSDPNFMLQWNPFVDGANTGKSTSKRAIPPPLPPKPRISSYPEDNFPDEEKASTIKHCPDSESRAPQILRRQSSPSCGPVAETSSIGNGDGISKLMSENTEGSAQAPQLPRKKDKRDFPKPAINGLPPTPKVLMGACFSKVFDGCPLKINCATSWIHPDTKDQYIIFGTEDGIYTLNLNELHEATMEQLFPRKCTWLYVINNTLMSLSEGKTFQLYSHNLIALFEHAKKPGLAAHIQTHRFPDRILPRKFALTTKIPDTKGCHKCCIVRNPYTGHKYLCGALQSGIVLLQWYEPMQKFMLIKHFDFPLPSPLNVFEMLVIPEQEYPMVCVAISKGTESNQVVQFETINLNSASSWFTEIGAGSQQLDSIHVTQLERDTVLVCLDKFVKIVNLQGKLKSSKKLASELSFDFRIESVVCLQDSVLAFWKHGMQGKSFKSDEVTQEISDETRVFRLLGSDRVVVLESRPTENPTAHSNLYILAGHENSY

Sequence of CDK10 (Q15131 whole entry): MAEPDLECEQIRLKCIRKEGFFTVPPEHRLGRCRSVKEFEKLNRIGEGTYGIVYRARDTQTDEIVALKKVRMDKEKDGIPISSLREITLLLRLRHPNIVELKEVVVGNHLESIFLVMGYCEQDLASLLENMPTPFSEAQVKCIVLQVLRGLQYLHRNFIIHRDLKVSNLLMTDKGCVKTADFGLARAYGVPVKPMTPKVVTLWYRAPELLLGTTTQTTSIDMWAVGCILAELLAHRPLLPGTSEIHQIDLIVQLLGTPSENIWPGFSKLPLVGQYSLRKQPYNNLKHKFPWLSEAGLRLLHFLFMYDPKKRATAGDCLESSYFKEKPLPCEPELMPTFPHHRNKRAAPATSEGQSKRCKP

pIC50 [1]: 7.86 ± 0.31
pIC50 [2]: < 4.52
pIC50 [3]: < 4.52
pIC50 [4]: < 4.52
pIC50 [5]: < 4.52
pIC50 [6]: < 4.52
pIC50 [7]: < 4.52
pIC50 [8]: < 4.52
pIC50 [9]: < 4.52
pIC50 [10]: < 4.52
pIC50 [11]: < 4.52
pIC50 [12]: < 4.52
pIC50 [13]: < 4.52
pIC50 [14]: < 4.52
pIC50 [15]: < 4.52
pIC50 [16]: < 4.52
pIC50 [17]: < 4.52
Structure (SMILES): CCc1cnn2c(NCc3ccc[n+]([O-])c3)cc(N3CCCC[C@H]3CCO)nc12 [dinaciclib]
